Assay results reported in patent US7807676B2, “Diketo-Piperazine and Piperidine derivatives as antiviral agents” (priority 2006, dated 2010).
Where a name gives a salt, the structure may show the parent alone.

What follows are compounds tested on HIV-1 single-round infectious reporter virus (assay: Single-round infectious HIV-1 luciferase reporter virus infection of HeLa CD4 cells (antiviral EC50)). Conditions: Human immunodeficiency virus 1, HeLa, read-out: EC50 Group from Table 3.
Type: cell-based
Protocol: • Virus production—Human embryonic Kidney cell line, 293T, was propagated in Dulbecco's Modified Eagle Medium (Invitrogen, Carlsbad, Calif.) containing 10% fetal Bovine serum (FBS, Sigma, St. Louis, Mo.). • Virus infection—Human epithelial cell line, HeLa, expressing the HIV-1 receptor CD4 was propagated in Dulbecco's Modified Eagle Medium (Invitrogen, Carlsbad, Calif.) containing 10% fetal Bovine serum (FBS, Sigma, St. Louis, Mo.) and supplemented with 0.2 mg/mL Geneticin (Invitrogen, Carlsbad, Calif.). Virus-Single-round infectious reporter virus was produced by co-transfecting human embryonic Kidney 293 cells with an HIV-1 envelope DNA expression vector and a proviral cDNA containing an envelope deletion mutation and the luciferase reporter gene inserted in place of HIV-1 nef sequences (Chen et al, Ref. 41). Transfections were performed using lipofectAMINE PLUS reagent as described by the manufacturer (Invitrogen, Carlsbad, Calif.). Experiment • 1. HeLa CD4 cells were plated in 96 well plates at a cell density of 1×10^4 cells per well in 100 μl Dulbecco's Modified Eagle Medium containing 10% fetal Bovine serum and incubated overnight. • 2. Compound was added in a 2 μl dimethylsulfoxide solution, so that the final assay concentration would be ≦10 μM. • 3. 100 μl of single-round infectious reporter virus in Dulbecco's Modified Eagle Medium was then added to the plated cells and compound at an approximate multiplicity of infection (MOI) of 0.01, resulting in a final volume of 200 μl per well. • 4. Virally-infected cells were incubated at 37 degrees Celsius, in a CO2 incubator, and harvested 72 h after infection. • 5. Viral infection was monitored by measuring luciferase expression from viral DNA in the infected cells using a luciferase reporter gene assay kit, as described by the manufacturer (Roche Molecular Biochemicals, Indianapolis, Ind.). Infected cell supernatants were removed and 50 μl of lysis buffer was added per well. After 15 minutes, 50 μl of freshly-reconstituted luciferase assay reagent was added per well. Luciferase activity was then quantified by measuring luminescence using a Wallac microbeta scintillation counter. • 6. The percent inhibition for each compound was calculated by quantifying the level of luciferase expression in cells infected in the presence of each compound as a percentage of that observed for cells infected in the absence of compound and subtracting such a determined value from 100. • 7. An EC50 provides a method for comparing the antiviral potency of the compounds of this disclosure. The effective concentration for fifty percent inhibition (EC50) was calculated with the Microsoft Excel Xlfit curve fitting software. For each compound, curves were generated from percent inhibition calculated at 10 different concentrations by using a four parameter logistic model (model 205). Table 3 is the key for the data in Table 4. Results
With O=C(C(=O)N1CCC(c2nnc(-c3ccccc3)o2)CC1)c1c[nH]c2c(-n3ccnn3)ncc(F)c12 [A-33] the EC50 was > 0.5 µM. In the case of O=C(C(=O)N1CCC(c2nc(-c3cccnc3)no2)CC1)c1c[nH]c2c(-n3ccnn3)ncc(F)c12 [A-34], the EC50 is reported as > 0.5 µM. In the case of Cc1cc(N2CCN(C(=O)C(=O)c3c[nH]c4c(-n5ccnn5)ncc(F)c34)CC2)nc(-c2ccccc2O)n1 [A-35], the EC50 is reported as < 0.5 µM. With O=C(C(=O)N1CCC(c2c(-c3ccccc3)[nH]c3ccccc23)CC1)c1c[nH]c2c(-n3ccnn3)ncc(F)c12 [A-36] the EC50 was > 0.5 µM. In the case of O=C(C(=O)N1CCN(c2nc3ccccc3n2-c2ccccc2)CC1)c1c[nH]c2c(-n3ccnn3)ncc(F)c12 [A-37], the EC50 is reported as < 0.5 µM. In the case of COc1cnc(-n2cnc(C)n2)c2[nH]cc(C(=O)C(=O)N3CCN(c4nc5ccccc5n4-c4ccccc4)CC3)c12 [A-38], the EC50 is reported as < 0.5 µM. With COc1cnc(-n2cnc(C)n2)c2[nH]cc(C(=O)C(=O)N3CCN(C4=NCCCN4c4ccccc4)CC3)c12 [A-39] the EC50 was > 0.5 µM. In the case of O=C(C(=O)N1CCN(C2=NCCCN2c2ccccc2)CC1)c1c[nH]c2c(-n3ccnn3)ncc(F)c12 [A-40], the EC50 is reported as > 0.5 µM. For O=C(C(=O)N1CCN(c2cccc(C3CCCCC3)c2)CC1)c1c[nH]c2c(-n3ccnn3)ncc(F)c12 [A-41], the EC50 was > 0.5 µM. O=C(C(=O)N1CCN(c2ccccc2C2CCCCC2)CC1)c1c[nH]c2c(-n3ccnn3)ncc(F)c12 [A-42] was tested, and the EC50 was > 0.5 µM. For O=C(C(=O)N1CCN(c2nncn2-c2ccccc2)CC1)c1c[nH]c2c(-n3ccnn3)ncc(O)c12 [A-43], the EC50 was < 0.5 µM. In the case of COc1cnc(-n2cnc(C)n2)c2[nH]cc(C(=O)C(=O)N3CCN(c4nncn4-c4ccccc4)CC3)c12 [A-44], the EC50 is reported as < 0.5 µM. With C[C@@H]1CN(C(=O)C(=O)c2c[nH]c3c(-n4ccnn4)ncc(F)c23)CCN1c1nnnn1-c1ccccc1 [A-45] the EC50 was < 0.5 µM. COc1cnc(-n2cnc(C)n2)c2[nH]cc(C(=O)C(=O)N3CCN(c4nnnn4-c4ccccc4)[C@H](C)C3)c12 [A-46] was tested, and the EC50 was < 0.5 µM. For Cc1nnc(N2CCN(C(=O)C(=O)c3c[nH]c4c(-n5ccnn5)ncc(F)c34)CC2)n1-c1ccccc1 [A-47], the EC50 was < 0.5 µM. For Cc1cc(N2CCN(C(=O)C(=O)c3c[nH]c4c(-n5ccnn5)ncc(F)c34)CC2)n(-c2ccccc2)n1 [A-48], the EC50 was < 0.5 µM. For O=C(C(=O)N1CCN(c2nccn2-c2ccccc2)CC1)c1c[nH]c2c(-n3ccnn3)ncc(F)c12 [A-49], the EC50 was < 0.5 µM. With CCOc1ccccc1N1CCN(C(=O)C(=O)c2c[nH]c3c(-n4ccnn4)ncc(F)c23)CC1 [A-50] the EC50 was < 0.5 µM. With O=C(C(=O)N1CCN(c2ncccc2C(F)(F)F)CC1)c1c[nH]c2c(-n3ccnn3)ncc(F)c12 [A-51] the EC50 was < 0.5 µM. For O=C(C(=O)N1CCN(c2ccccc2C(F)(F)F)CC1)c1c[nH]c2c(-n3ccnn3)ncc(F)c12 [A-52], the EC50 was > 0.5 µM. With COc1cnc(Br)c2[nH]cc(C(=O)C(=O)N3CCN(c4nncn4-c4ccccc4)CC3)c12 [A-53] the EC50 was < 0.5 µM. In the case of COc1cnc(-n2cnc(C)n2)c2[nH]cc(C(=O)C(=O)N3CCN(c4nccn4-c4ccccc4)CC3)c12 [A-54], the EC50 is reported as < 0.5 µM. In the case of O=C(C(=O)N1CCN(C2=NS(=O)(=O)N=C2c2ccccc2)CC1)c1c[nH]c2c(-n3ccnn3)ncc(F)c12 [A-55], the EC50 is reported as < 0.5 µM. For C[C@@H]1CN(C(=O)C(=O)c2c[nH]c3c(Cl)ncc(O)c23)CCN1c1nnnn1-c1ccccc1 [A-56], the EC50 was > 0.5 µM. With COc1cnc(-c2cnccn2)c2[nH]cc(C(=O)C(=O)N3CCN(c4nncn4-c4ccccc4)CC3)c12 [A-57] the EC50 was < 0.5 µM. COc1cnc(-n2ccnn2)c2[nH]cc(C(=O)C(=O)N3C(C)CN(c4nnnn4-c4ccccc4)CC3C)c12 (stereo not drawn) [A-58] was tested, and the EC50 was < 0.5 µM. For COc1cnc(-n2ccnn2)c2[nH]cc(C(=O)C(=O)N3CCN(c4nnnn4-c4ccccn4)CC3)c12 [A-59], the EC50 was < 0.5 µM. For COc1cnc(-n2cnc(C)n2)c2[nH]cc(C(=O)C(=O)N3CCN(c4nnnn4-c4ccccc4)[C@@H](C)C3)c12 [A-60], the EC50 was < 0.5 µM. In the case of C[C@H]1CN(C(=O)C(=O)c2c[nH]c3c(-n4ccnn4)ncc(F)c23)CCN1c1nnnn1-c1ccccc1 [A-61], the EC50 is reported as < 0.5 µM. With CCOc1cccnc1N1CCN(C(=O)C(=O)c2c[nH]c3c(-n4ccnn4)ncc(F)c23)CC1 [A-62] the EC50 was < 0.5 µM. CCOc1cccnc1N1CCN(C(=O)C(=O)c2c[nH]c3c(-n4cnc(C)n4)ncc(OC)c23)CC1 [A-63] was tested, and the EC50 was < 0.5 µM. COc1cnc(-c2ncc(OC)c3c(C(=O)C(=O)N4CCN(c5nnnn5-c5ccccc5)CC4)c[nH]c23)c2[nH]ccc12 [A-64] was tested, and the EC50 was < 0.5 µM. With COc1cnc(-n2cnc(C)n2)c2[nH]cc(C(=O)C(=O)N3CCN(c4ncccc4C(O)c4nccs4)CC3)c12 (stereo not drawn) [A-66] the EC50 was < 0.5 µM. For O=C(c1nccs1)c1cccnc1N1CCN(C(=O)C(=O)c2c[nH]c3cccc(F)c23)CC1 [A-67], the EC50 was > 0.5 µM. With CCc1ncn(-c2ncc(OC)c3c(C(=O)C(=O)N4CCN(c5ncccc5C(=O)c5nccs5)CC4)c[nH]c23)n1 [A-68] the EC50 was < 0.5 µM. With CCc1ncn(-c2ncc(OC)c3c(C(=O)C(=O)N4CCN(c5nnnn5-c5ccccn5)CC4)c[nH]c23)n1 [A-69] the EC50 was < 0.5 µM. With CCc1ncn(-c2ncc(OC)c3c(C(=O)C(=O)N4CCN(c5nnnn5-c5ccccc5)CC4)c[nH]c23)n1 [A-70] the EC50 was < 0.5 µM. O=C(C(=O)N1[C@@H]2CC[C@H]1CN(c1nnnn1-c1ccccc1)C2)c1c[nH]c2c(-n3ccnn3)ncc(F)c12 [A-71] was tested, and the EC50 was < 0.5 µM. O=C(C(=O)N1C[C@@H]2CC[C@H]1CN2c1nnnn1-c1ccccc1)c1c[nH]c2c(-n3ccnn3)ncc(F)c12 [A-72] was tested, and the EC50 was < 0.5 µM. COc1cnc(-n2cnc(C)n2)c2[nH]cc(C(=O)C(=O)N3[C@H](C)CN(c4nnnn4-c4ccccc4)C[C@@H]3C)c12 [A-73] was tested, and the EC50 was < 0.5 µM. For O=C(C(=O)N1C[C@@H]2C[C@H]1CN2c1nnnn1-c1ccccc1)c1c[nH]c2c(-n3ccnn3)ncc(F)c12 [A-74], the EC50 was > 0.5 µM. For Cc1ccnn1-c1ncc(F)c2c(C(=O)C(=O)N3CCN(c4nnnn4-c4ccccc4)CC3)c[nH]c12 [B-3, 1-(4-fluoro-7-(5-methyl-1H-pyrazol-1-yl)-1H-pyrrolo[2,3-c]pyridin-3-yl)-2-(4-(1-phenyl-1H-tetrazol-5-yl)piperazin-1-yl)ethane-1,2-dione], the EC50 was < 0.5 µM. For Nc1ccn(-c2ncc(F)c3c(C(=O)C(=O)N4CCN(c5nnnn5-c5ccccc5)CC4)c[nH]c23)n1 [B-4, 1-(7-(3-amino-1H-pyrazol-1-yl)-4-fluoro-1H-pyrrolo[2,3-c]pyridin-3-yl)-2-(4-(1-phenyl-1H-tetrazol-5-yl)piperazin-1-yl)ethane-1,2-dione], the EC50 was < 0.5 µM. Nc1ccnn1-c1ncc(F)c2c(C(=O)C(=O)N3CCN(c4nnnn4-c4ccccc4)CC3)c[nH]c12 [B-5, 1-(7-(5-amino-1H-pyrazol-1-yl)-4-fluoro-1H-pyrrolo[2,3-c]pyridin-3-yl)-2-(4-(1-phenyl-1H-tetrazol-5-yl)piperazin-1-yl)ethane-1,2-dione] was tested, and the EC50 was < 0.5 µM. With COc1cnc(-c2cc(C(=O)NCCO)[nH]n2)c2[nH]cc(C(=O)C(=O)N3CCN(c4nnnn4-c4ccccc4)CC3)c12 [B-8, N-(2-hydroxyethyl)-3-(4-methoxy-3-(2-oxo-2-(4-(1-phenyl-1H-tetrazol-5-yl)piperazin-1-yl)acetyl)-1H-pyrrolo[2,3-c]pyridin-7-yl)-1H-pyrazole-5-carboxamide.TFA] the EC50 was < 0.5 µM.
